Data published in patent publication US20230099811A1, “COMPOSITION OF HYALURONIC ACID AND USE ALONE AND IN COMBINATION WITH RETINOIDS TO IMPROVE SKIN” (RoC OPCO LLC, priority 2021, published 2023).

Assays:
[1] = system: cultured human epidermal/dermal skin tissues (EpiDerm-FT); assay: Hyaluronic acid levels by HA ELISA in culture medium and tissue lysates of EpiDerm-FT; type: cell-based; conditions: vs vehicle-treated tissues
Excerpt: (§1) The purpose of this study was to evaluate the hyaluronic acid (HA) expression change activity of RoC® HA Serum Capsules (i.e. Example 2.0), RoC® Retinol Serum Capsules (i.e. Example 1.0), commercially available HA Serum (1.5 wt. % HA) and commercially available Retinol Serum (0.3 wt. % retinol) compared to 0.15% Retinol-treated tissues in cultured human epidermal/dermal skin tissues (EpiDerm-FT™). HA levels from culture medium, tissue lysates, HA histology and gene expression related to dermal anti-aging effects were quantified using qPCR method after 24- and 72-hours incubation with test materials.

[2] = system: cultured human epidermal/dermal skin tissues (EpiDerm-FT); assay: Alcian Blue histology of dermal layer, image analysis, EpiDerm-FT; type: cell-based; conditions: vs vehicle-only treated tissues
Excerpt: as §1
After incubations, tissues were fixed and subjected to the normal steps of tissue preparation for histological analysis: dehydration, paraffin embedding, sectioning and staining with Alcian Blue. Histological activity was analyzed using image analysis including blue-color deconvolution and luminosity per section area in dermal layer. The percent change effect of each treatment was calculated comparing the vehicle-only treated tissues group.

[3] = system: Collagen type-I (COL1A1) gene; assay: Gene expression change by qPCR in EpiDerm-FT: COL1A1; type: cell-based, human; conditions: vs vehicle-treated tissues, GAPDH housekeeping
Excerpt: as §1

[4] = system: Collagen type-III (COL3A1) gene; assay: Gene expression change by qPCR in EpiDerm-FT: COL3A1; type: cell-based, human; conditions: vs vehicle-treated tissues, GAPDH housekeeping
Excerpt: as §1

[5] = system: Collagen type-IV (COL4A1) gene; assay: Gene expression change by qPCR in EpiDerm-FT: COL4A1; type: cell-based, human; conditions: vs vehicle-treated tissues, GAPDH housekeeping
Excerpt: as §1

Elastin (ELN) gene = assay: Gene expression change by qPCR in EpiDerm-FT: ELN; type: cell-based, human; conditions: vs vehicle-treated tissues, GAPDH housekeeping
Excerpt: as §1

Fibronectin (FN1) gene = assay: Gene expression change by qPCR in EpiDerm-FT: FN1; type: cell-based, human; conditions: vs vehicle-treated tissues, GAPDH housekeeping
Excerpt: as §1

[6] = system: Hyaluronic acid synthase-1 (HAS1) gene; assay: Gene expression change by qPCR in EpiDerm-FT: HAS1; type: cell-based, human; conditions: vs vehicle-treated tissues, GAPDH housekeeping
Excerpt: as §1

[7] = system: Hyaluronic acid synthase-2 (HAS2) gene; assay: Gene expression change by qPCR in EpiDerm-FT: HAS2; type: cell-based, human; conditions: vs vehicle-treated tissues, GAPDH housekeeping
Excerpt: as §1

[8] = 24 hr, n = 3, listed as 0.15% Retinol formulated in DMSO

SMILES: CC1=C(/C=C/C(C)=C/C=C/C(C)=C/CO)C(C)(C)CCC1 [0.15% Retinol in DMSO, Retinol]
- Hyaluronic Acid (HA) levels change, Culture medium ([1]; 24 hr, n = 3): +34%
- Hyaluronic Acid (HA) levels change, Tissue lysates ([1]; 24 hr, n = 3): +52%
- Hyaluronic Acid (HA) levels change, Culture medium [1, 8]: 34%
- Hyaluronic Acid (HA) levels change, Tissue lysates [1, 8]: 52%
- Hyaluronic Acid (HA) levels change, Culture medium ([1]; 72 hr, n = 3): +25%
- Hyaluronic Acid (HA) levels change, Tissue lysates ([1]; 72 hr, n = 3): +49%
- Histology, Alcian Blue in Dermis staining change ([2]; 24 hr): +81%
- Histology, Alcian Blue in Dermis staining change ([2]; 72 hr): −9%
- Gene Expression change, COL1A1 ([3]; 24 hr): −22%
- Gene Expression change, COL1A1 ([3]; 72 hr): +18%
- Gene Expression change, COL3A1 ([4]; 24 hr): −22%
- Gene Expression change, COL3A1 ([4]; 72 hr): +8%
- Gene Expression change, COL4A1 ([5]; 24 hr): −30%
- Gene Expression change, COL4A1 ([5]; 72 hr): +9%
- Gene Expression change, ELN (Elastin (ELN) gene; 24 hr): −21%
- Gene Expression change, ELN (Elastin (ELN) gene; 72 hr): +25%
- Gene Expression change, FN1 (Fibronectin (FN1) gene; 24 hr): −16%
- Gene Expression change, FN1 (Fibronectin (FN1) gene; 72 hr): +45%
- Gene Expression change, FN1 (Fibronectin (FN1) gene; 72 hr, listed as 0.15% Retinol formulated in DMSO): 45%
- Gene Expression change, HAS1 ([6]; 24 hr): −52%
- Gene Expression change, HAS1 ([6]; 72 hr): −29%
- Gene Expression change, HAS2 ([7]; 24 hr): −11%
- Gene Expression change, HAS2 ([7]; 72 hr): −18%
